We go through 2 compounds from patent US20040048356A1, “Use of a strain of lactobacillus reducing the risk factors involved in the metabolic syndrome” (priority 2000, published 2004).

For experiment [1] the following is noted: clinical trial, Zapolska-Downar et al. 2000; cited from earlier work.
For a further experiment, the system named is PPAR. Briefly: Effect of propionic acid on PPAR gene expression in vitro (semiquantitative RT-PCR in HUVEC). The experiment is classed as cell-based. The following applies: PPAR mRNA in human endothelial cells, percent in relation to GAPDH mRNA (100%). On the procedure: Human umbilical vein endothelial cells, HUVEC, were obtained from umbilical cords by collagenase digestion as described by Jaffe et al. (Biology of Endothelial Cells, Boston, Martinus Nijhoff Publishers, 1984, p. 1-13). In brief, veins of umbilical cords were perfused with PBS to remove blood cells, filled with 0.1% collagenase (type Ia) and left for 10 minutes at 37° C. Suspended HUvEC were supplemented with PBS, centrifuged and cultured at 37° C. in gelatine-coated 25 ml flasks and 6-well tissue culture plates filled with medium 199, under humidified 5% CO2 in room air. Propionic acid was added to the culture medium in the amounts of 0.1, 1.0, and 10.0 mmol/l, and the effect of the acid on the expression of PPAR was determined. Total RNA was extracted from the cells by the method of Chomczynski using TRIZOL (Gibco BRL). After isolation the integrity of the RNA samples was checked by gel electrophoresis in 1% agarose gel stained with ethidium bromide. The concentration of total RNA was calculated after spectrophotometric measurements at 260 nm wavelength. Each RNA sample (500 ng) was incubated with 1 U of DNAse I (Boehringer Mannheim, Germany) for 15 minutes at 37° C., and subsequently DNAse I was inactivated by heating at 75° C. for 3 minutes. Such DNAse-treated RNA (500 ng) was dissolved in 20 μl of a reaction mixture containing 2.5 mM of dATP, dTTP, dCTP, and dGTP (Progmega, USA), 20 U of RNAsin (Promega, USA), 100 pM of random hexamers (Boehringer Mannheim, Germany) and 20 U of MMLV Reverse Transcriptase (Boehringer Mannheim). Incubation was carried out at 37° C. for 60 minutes; the temperature of the reaction was then raised to 94° C. for 5 minutes to inactivate the enzyme and finally dropped to 4° C. […] The intensity of the bands was densitometrically measured with the gel analysis macro supplied with NIH Image. All PPAR signals were normalised to mRNA levels of the housekeeping gene GAPDH and expressed as a ratio. Data are expressed as percent in relation to GAPDH mRNA (100%).

Turning to `CC(C)Cc1ccc(C(C)C(=O)O)cc1` (stereo not shown) [ibuprofen], the HDL cholesterol levels entry in experiment [1] is recorded as “increased”.

For the compound `CCC(=O)O` [propionic acid], the “Increase of mRNA, %” value is reported as 29.3% in the experiment on PPAR (propionic acid 0.1 mmol/l), 47.2% in the experiment with PPAR (propionic acid 1.0 mmol/l) and 89.7% in the experiment with PPAR (propionic acid 10.0 mmol/l).
